31 molecules from patent US11332476B2, “Fms-like tyrosine kinase inhibitors” (3SM BIOTRON INC., priority 2018, dated 2022) can be followed below.

A value given as a limit tells only on which side of the number the result lay.

This assay deals with T1, FLT3 (Homo sapiens, UniProt P36888).
T1 sequence (P36888 27-993): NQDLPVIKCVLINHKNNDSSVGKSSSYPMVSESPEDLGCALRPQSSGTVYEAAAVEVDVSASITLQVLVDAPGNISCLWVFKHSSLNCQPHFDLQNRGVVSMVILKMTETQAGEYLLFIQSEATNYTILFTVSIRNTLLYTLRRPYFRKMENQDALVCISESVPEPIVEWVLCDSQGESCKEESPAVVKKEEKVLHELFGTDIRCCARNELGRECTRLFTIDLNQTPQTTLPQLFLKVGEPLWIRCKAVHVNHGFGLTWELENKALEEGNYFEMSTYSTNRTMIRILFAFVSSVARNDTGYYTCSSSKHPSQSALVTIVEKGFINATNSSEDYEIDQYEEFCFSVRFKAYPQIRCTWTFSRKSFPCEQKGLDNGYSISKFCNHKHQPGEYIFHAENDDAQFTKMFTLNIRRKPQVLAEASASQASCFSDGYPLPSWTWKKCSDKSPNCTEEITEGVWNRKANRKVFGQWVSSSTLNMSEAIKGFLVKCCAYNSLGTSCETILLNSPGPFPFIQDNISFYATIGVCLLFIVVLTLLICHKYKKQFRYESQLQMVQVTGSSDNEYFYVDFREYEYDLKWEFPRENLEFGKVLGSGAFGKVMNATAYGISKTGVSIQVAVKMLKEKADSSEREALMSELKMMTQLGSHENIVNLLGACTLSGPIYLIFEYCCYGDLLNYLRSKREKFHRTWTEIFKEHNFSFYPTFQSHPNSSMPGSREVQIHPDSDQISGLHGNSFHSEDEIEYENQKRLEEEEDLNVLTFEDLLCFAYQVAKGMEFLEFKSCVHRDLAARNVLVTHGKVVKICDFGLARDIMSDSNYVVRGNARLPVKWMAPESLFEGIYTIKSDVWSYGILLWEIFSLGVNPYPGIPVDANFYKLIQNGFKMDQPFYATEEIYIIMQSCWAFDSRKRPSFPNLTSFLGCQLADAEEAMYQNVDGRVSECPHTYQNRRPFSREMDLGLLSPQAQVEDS
Description: Inhibition of FLT3, 33P-ATP kinase assay with filter-binding detection. It is filed as biochemical. Conditions: 33P-ATP 10 uM, 2 hours at room temperature, filter-binding method. How it is done:
Prepare indicated substrate in freshly prepared Base Reaction Buffer (20 mM Hepes (pH 7.5), 10 mM MgCl2, 1 mM EGTA, 0.02% Brij35, 0.02 mg/ml BSA, 0.1 mM Na3VO4, 2 mM DTT, 1% DMSO). Deliver any required cofactors to the substrate solution above. Deliver indicated kinase into the substrate solution and gently mix. The testing compounds in DMSO was added into the kinase reaction mixture by Acoustic technology (Echo550; nanoliter range) and incubated for 20 minutes at room temperature. Deliver 33P-ATP (specific activity […]) into the reaction mixture to initiate the reaction. Incubate kinase reaction for 2 hours at room temperature. Reactions are spotted onto P81 ion exchange paper. Detect kinase activity by filter-binding method.
Inhibition of FLT3 with 4-Quinolone Derivatives
For the molecule `O=c1c2cc(F)ccc2sc2c(NCCNc3ccccn3)nc3ccccc3c12` [compound 7765, 10-fluoro-6-((2-(pyridin-2-ylamino)ethyl)amino)-12H-thiochromeno[2,3-c]quinolin-12-one], the IC50 is > 1000 nM.
As for `CN(C)CCCNc1nc2ccccc2c2c(=O)c3cc(Cl)ccc3sc12` [compound 7722, 10-chloro-6-(3-(dimethylamino)propylamino)-12H-thiochromeno[2,3-c]quinolin-12-one], the figure is > 1000 nM; as for `O=c1c2cc(F)ccc2sc2c(NCCN3CCCC3)nc3ccccc3c12` [compound 7755, 10-fluoro-6-(2-(pyrrolidin-1-yl)ethylamino)-12H-thiochromeno[2,3-c]quinolin-12-one], 501 to 1000 nM; as for `NCCCNc1nc2ccccc2c2c(=O)c3cc(F)ccc3sc12` [compound 7707, 6-(3-aminopropylamino)-10-fluoro-12H-thiochromeno[2,3-c]quinolin-12-one], < 51 nM.
As to `CCNc1nc2ccccc2c2c(=O)c3cc(Cl)ccc3sc12` [compound 7736, 10-chloro-6-(ethylamino)-12H-thiochromeno[2,3-c]quinolin-12-one], the IC50 was > 1000 nM.
As for `COc1ccc2sc3c(NCCCNCCO)nc4ccccc4c3c(=O)c2c1` [compound 7712, 6-(3-(2-hydroxyethylamino)propylamino)-10-methoxy-12H-thiochromeno[2,3-c]quinolin-12-one], the figure is 501 to 1000 nM.
As for `O=c1c2cc(F)ccc2sc2c(NCc3cccnc3)nc3ccccc3c12` [compound 7748, 10-fluoro-6-(pyridin-3-ylmethylamino)-12H-thiochromeno[2,3-c]quinolin-12-one], the figure is > 1000 nM; as for `O=c1c2cc(F)ccc2sc2c(NCCCNCCO)nc3ccccc3c12` [compound 7708, 10-fluoro-6-(3-(2-hydroxyethylamino)propylamino)-12H-thiochromeno[2,3-c]quinolin-12-one], 201 to 500 nM; as for `O=c1c2cc(C(F)(F)F)ccc2sc2c(NCCCNCCO)nc3ccccc3c12` [compound 7214, 6-(3-(2-hydroxyethylamino)propylamino)-10-trifluoromethyl-12H-thiochromeno[2,3-c]quinolin-12-one], > 1000 nM.
As for `NCCCNc1nc2ccccc2c2c(=O)c3cc(C(F)(F)F)ccc3sc12` [compound 7201, 6-(3-aminopropylamino)-10-trifluoromethyl-12H-thiochromeno[2,3-c]quinolin-12-one], the IC50 was > 1000 nM.
As for `O=c1c2cc(F)ccc2sc2c(N3CCN(Cc4ccccc4)CC3)nc3ccccc3c12` [compound 7758, 6-(4-benzylpiperazin-1-yl)-10-fluoro-12H-thiochromeno[2,3-c]quinolin-12-one], the figure is > 1000 nM; as for `COc1ccc2sc3c(NCCCO)nc4ccccc4c3c(=O)c2c1` [compound 7742, 10-methoxy-6-(3-hydroxypropylamino)-12H-thiochromeno[2,3-c]quinolin-12-one], > 1000 nM.
As for `NCCNc1nc2ccccc2c2c(=O)c3cc(F)cc(Cl)c3sc12` [compound 7248, 6-(2-aminoethylamino)-8-chloro-10-fluoro-12H-thiochromeno[2,3-c]quinolin-12-one], the figure is 51 to 200 nM; as for `COc1ccc2sc3c(N)nc4ccccc4c3c(=O)c2c1` [compound 7709, 6-Amino-10-methoxy-12H-thiochromeno[2,3-c]quinolin-12-one], > 1000 nM.
The value for `CCCNc1nc2ccccc2c2c(=O)c3cc(OC)ccc3sc12` [compound 7710, 10-methoxy-6-(propylamino)-12H-thiochromeno[2,3-c]quinolin-12-one] was > 1000 nM.
In the case of `NCCCNc1nc2ccccc2c2c(=O)c3cc(F)cc(Cl)c3sc12` [compound 7213, 6-(3-aminopropylamino)-8-chloro-10-fluoro-12H-thiochromeno[2,3-c]quinolin-12-one], the IC50 was > 1000 nM.
The value for `CCNc1nc2ccccc2c2c(=O)c3cccc(OC)c3sc12` [compound 7245, 6-(ethylamino)-8-methoxy-12H-thiochromeno[2,3-c]quinolin-12-one] was > 1000 nM; that for `COCCCNc1nc2ccccc2c2c(=O)c3cc(F)ccc3sc12` [compound 7730, 10-fluoro-6-(3-methoxypropylamino)-12H-thiochromeno[2,3-c]quinolin-12-one] was > 1000 nM; that for `CCCNc1nc2ccccc2c2c(=O)c3cc(Cl)ccc3sc12` [compound 7703, 10-chloro-6-(propylamino)-12H-thiochromeno[2,3-c]quinolin-12-one] was > 1000 nM.
The value for `O=c1c2cc(F)ccc2sc2c(N3CCNCC3)nc3ccccc3c12` [compound 7739, 10-fluoro-6-(piperazin-1-yl)-12H-thiochromeno[2,3-c]quinolin-12-one] was 51 to 200 nM.
As for `NCCNc1nc2ccccc2c2c(=O)c3cccc(F)c3sc12` [compound 7240, 6-(2-aminoethylamino)-8-fluoro-12H-thiochromeno[2,3-c]quinolin-12-one], the figure is < 51 nM; as for `COc1ccc2sc3c(NCCO)nc4ccccc4c3c(=O)c2c1` [compound 7733, 6-(2-Hydroxyethylamino)-10-methoxy-12H-thiochromeno[2,3-c]quinolin-12-one], > 1000 nM.
For `O=c1c2cc(Cl)ccc2sc2c(NCCO)nc3ccccc3c12` [compound 7717, 10-chloro-6-(2-hydroxyethylamino)-12H-thiochromeno[2,3-c]quinolin-12-one], the 50% inhibitory concentration (IC50) was > 1000 nM.
The value for `CN(C)CCCNc1nc2ccccc2c2c(=O)c3cc(F)ccc3sc12` [compound 7732, 6-(3-(dimethylamino)propylamino)-10-fluoro-12H-thiochromeno[2,3-c]quinolin-12-one] was > 1000 nM; that for `O=c1c2cc(F)ccc2sc2c(NCCCO)nc3ccccc3c12` [compound 7729, 10-fluoro-6-(3-hydroxypropylamino)-12H-thiochromeno[2,3-c]quinolin-12-one] was > 1000 nM; that for `O=c1c2cc(Cl)ccc2sc2c(NCCCO)nc3ccccc3c12` [compound 7719, 10-chloro-6-(3-hydroxypropylamino)-12H-thiochromeno[2,3-c]quinolin-12-one] was > 1000 nM.
The value for `Cc1ccc2sc3c(NCCCN)nc4ccccc4c3c(=O)c2c1` [compound 7202, 6-(3-aminopropylamino)-10-methyl-12H-thiochromeno[2,3-c]quinolin-12-one] was 51 to 200 nM; that for `O=c1c2cc(F)ccc2sc2c(-n3cccc3)nc3ccccc3c12` [compound 7750, 10-fluoro-6-(1H-pyrrol-1-yl)-12H-thiochromeno[2,3-c]quinolin-12-one] was > 1000 nM; that for `CN1CCN(c2nc3ccccc3c3c(=O)c4cc(F)ccc4sc23)CC1` [compound 7740, 10-fluoro-6-(4-methylpiperazin-1-yl)-12H-thiochromeno[2,3-c]quinolin-12-one] was 501 to 1000 nM.
Regarding `Nc1nc2ccccc2c2c(=O)c3cc(F)ccc3sc12` [compound 7705, 6-amino-10-fluoro-12H-thiochromeno[2,3-c]quinolin-12-one], the IC50 was > 1000 nM.
As to `O=c1c2cc(F)ccc2sc2c(Nc3cccnc3)nc3ccccc3c12` [compound 7761, 10-fluoro-6-(pyridin-3-ylamino)-12H-thiochromeno[2,3-c]quinolin-12-one], the half-maximal inhibitory concentration (IC50) was > 1000 nM.

In general, IC50 refers to the concentration that gives 50% inhibition.
